Columns and labels:
11b-HSD1 [1] = biological target: 11b-HSD1 (Homo sapiens, UniProt P28845); assay: Enzymatic assay, 11b-HSD1 dependent conversion of cortisone into cortisol (reductase activity); format: biochemical; conditions: recombinant protein, 2 μM cortisone, 45 min at 37 C; for IC50: read-out: [C1] HSD1-prot Reduct Score
Description: The effects of compounds on 11b-HSD1 dependent conversion of cortisone into cortisol (reductase activity) was studied in a reaction mixture containing 30 mM Tris-HCl buffer pH 7.2, 180 μM NADPH, 1 mM EDTA, 2 μM cortisone, 1 μl drug and/or solvent and 11 μg recombinant protein in a final volume of 100 μl.
All incubations were performed for 45 min at 37 C in a water bath. The reaction was stopped by adding 100 μl acetonitrile containing 20 μg corticosterone as internal standard. After centrifugation, the product formation was analysed in the supernatant by HPLC on a Hypersyl BDS-C18 column using 0.05 mM ammonium acetate/methanol (50/50) as solvent. In all of the aforementioned assays, the drugs to be tested were taken from a stock solution and tested at a final concentration ranging from […] to 3.10^−9M. From the thus obtained dose response curves, the pIC50 value was calculated and scored as follows; Score 1=pIC50 value<5, Score 2=pIC50 value in the range of 5 to 6, Score 3=pIC50 value>6. (in this table NT stands for Not Tested).

11b-HSD1 [2] = biological target: T1, 11b-HSD1 (Mus musculus, UniProt P50172); assay: Cellular assay, 11b-HSD1 activity in differentiated 3T3-L1 cells; format: cell-based; conditions: 4 hour pre-incubation; for IC50: read-out: [C2] HSD1 cellular 3T3-L1 Score
T1 construct: Fibroblasts were differentiated into adipocytes; endogenous in cells; host or cells: differentiated 3T3-L1 cells (ATCC-CL-173)
Description: The effects on 11b-HSD1 activity was measured in differentiated 3T3-L1 cells and rat hepatocytes.
Mouse fibroblast 3T3-L1 cells (ATCC-CL-173) were seeded at a density of 16500 cells/ml in 12 well plates and grown for 7 days in DMEM medium (supplemented with 10% heat inactivated foetal calf serum, 2 mM glutamine and 25 mg gentamycin) at 37 C in a humidified 5% CO2 atmosphere. Medium was refreshed twice a week. Fibroblasts were differentiated into adipocytes at 37 C in a 5% CO2 humidified atmosphere in growth medium containing 2 μg/ml insulin, 55 μg/ml IBMX and 39.2 μg/ml dexamethasone.
Following a 4 hour pre-incubation with test compound, 0.5 μCi ^3H-cortisone or dehydrocorticosterone, was added to the cultures. One hour later, the medium was extracted on Extrelut^3-columns with 15 ml diethyl ether and the extract was analysed by HPLC as described above.
As for the enzymatic assays, the compounds to be tested were taken from a stock solution and tested at a final concentration ranging from […] to 3.10^−9M. From the thus obtained dose response curves, the pIC50 value was calculated and scored as follows; Score 1=pIC50 value<5, Score 2=pIC50 value in the range of 5 to 6, Score 3=pIC50 value>6. Some of the thus obtained results are summarized in the table below (in this table NT stands for Not Tested).

T1 sequence (P50172 whole entry): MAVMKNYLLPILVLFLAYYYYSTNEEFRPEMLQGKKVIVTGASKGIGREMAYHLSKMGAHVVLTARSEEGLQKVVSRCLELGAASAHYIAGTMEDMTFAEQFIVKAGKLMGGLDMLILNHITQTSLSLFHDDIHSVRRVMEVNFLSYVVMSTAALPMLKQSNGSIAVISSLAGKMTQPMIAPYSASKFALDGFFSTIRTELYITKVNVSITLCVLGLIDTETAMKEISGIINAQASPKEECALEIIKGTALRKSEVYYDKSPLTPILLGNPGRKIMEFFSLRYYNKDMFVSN
11b-HSD1 (Homo sapiens, UniProt P28845), sequence (P28845 whole entry): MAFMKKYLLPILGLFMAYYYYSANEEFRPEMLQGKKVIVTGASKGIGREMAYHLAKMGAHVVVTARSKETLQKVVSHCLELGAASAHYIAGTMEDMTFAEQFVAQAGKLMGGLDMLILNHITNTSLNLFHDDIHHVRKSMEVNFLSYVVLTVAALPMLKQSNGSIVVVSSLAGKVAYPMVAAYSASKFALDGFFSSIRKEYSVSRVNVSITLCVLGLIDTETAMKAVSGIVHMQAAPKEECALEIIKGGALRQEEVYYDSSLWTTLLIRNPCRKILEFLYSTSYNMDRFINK

Structure (SMILES) | IC50 (11b-HSD1 [1]) [µM] | IC50 (11b-HSD1 [2]) [µM] | [C1] HSD1-prot Reduct Score (11b-HSD1 [1]) | [C2] HSD1 cellular 3T3-L1 Score (11b-HSD1 [2])
Cc1ccccc1C[C@@H]1CCN([C@H](C)c2ccccc2)C1=O [Compound 62] | > 10 | 1 to 10 | – | –
Cc1cccc(C[C@@H]2CCN([C@H](C)c3ccccc3)C2=O)c1 [Compound 63] | > 10 | 1 to 10 | – | –
C[C@H](c1ccccc1)N1CC[C@H](Cc2ccccc2C#N)C1=O [Compound 64] | > 10 | 1 to 10 | – | –
COc1cccc(C[C@H]2CCN([C@H](C)c3ccccc3)C2=O)c1 [Compound 66] | > 10 | 1 to 10 | – | –
Cc1ccccc1C[C@H]1CCN([C@H](C)c2ccccc2)C1=O [Compound 67] | 1 to 10 | < 1 | – | –
Cc1cccc(C[C@H]2CCN([C@H](C)c3ccccc3)C2=O)c1 [Compound 68] | > 10 | 1 to 10 | – | –
C[C@@H](c1ccccc1)N1CC[C@@H](CCc2ccccc2)C1=O [Compound 72] | > 10 | 1 to 10 | – | –
C[C@@H](c1ccccc1)N1CC[C@H](CCc2ccccc2)C1=O [Compound 73] | < 1 | 1 to 10 | – | –
C[C@@H](c1ccccc1)N1CC[C@@H](CCc2cccc3ccccc23)C1=O [Compound 74] | 1 to 10 | 1 to 10 | – | –
C[C@@H](c1ccccc1)N1CC[C@H](CCc2cccc3ccccc23)C1=O [Compound 75] | < 1 | 1 to 10 | – | –
Cc1cccc(C)c1C[C@@H]1CCN([C@@H](C)c2ccccc2)C1=O [Compound 76] | – | – | 3 (Score 3=pIC50 value>6) | 2 (Score 2=pIC50 value in the range of 5 to 6)
O=C1C(Cc2c(Cl)cccc2Cl)CCN1CCc1ccc(F)cc1 (centres unmarked) [Compound 81] | > 10 | – | – | 3 (Score 3=pIC50 value>6)
O=C1C(Cc2c(Cl)cccc2Cl)CCN1CCc1ccc(Br)cc1 (centres unmarked) [Compound 82] | < 1 | 1 to 10 | – | –
Cc1cccc(C)c1CC1CCN(CCc2ccccc2)C1=O (centres unmarked) [Compound 83] | < 1 | > 10 | – | –
O=C1C(Cc2c(F)cccc2F)CCN1CCc1ccccc1 (centres unmarked) [Compound 84] | 1 to 10 | < 1 | – | –
O=C1C(Cc2ccc(F)cc2Cl)CCN1CCc1ccccc1 (centres unmarked) [Compound 85] | 1 to 10 | > 10 | – | –
O=C1C(Cc2cc3c(cc2Cl)OCO3)CCN1CCc1ccccc1 (centres unmarked) [Compound 86] | 1 to 10 | < 1 | – | –
Cc1ccccc1CC1CCCN(CCc2ccccc2)C1=O (centres unmarked) [Compound 87] | > 10 | 1 to 10 | – | –
O=C1C(Cc2ccc(F)cc2Cl)CCCN1CCc1ccccc1 (centres unmarked) [Compound 88] | 1 to 10 | 1 to 10 | – | –
O=C1C(Cc2ccc3c(c2)OCO3)CCN1CCc1ccccc1 (centres unmarked) [Compound 89] | > 10 | 1 to 10 | – | –
Cc1ccc([C@@H](O)[C@H]2CCN([C@@H](C)c3ccccc3)C2=O)c(C)c1 [Compound 90] | > 10 | 1 to 10 | – | –
Cc1ccc([C@H](O)[C@H]2CCN([C@@H](C)c3ccccc3)C2=O)c(C)c1 [Compound 91] | 1 to 10 | < 1 | – | –
COc1ccc(CCN2CCC(Cc3c(Cl)cccc3Cl)C2=O)cc1 (centres unmarked) [Compound 92] | < 1 | 1 to 10 | – | –
Cc1ccc(CCN2CCC(Cc3c(Cl)cccc3Cl)C2=O)cc1 (centres unmarked) [Compound 93] | > 10 | > 10 | – | –
CC[C@@H](c1ccccc1)N1CC[C@H](Cc2c(Cl)cccc2Cl)C1=O [Compound 94] | > 10 | < 1 | – | –

Structure (SMILES) | IC50 (11b-HSD1 [1]) [µM] | IC50 (11b-HSD1 [2]) [µM] | [C1] HSD1-prot Reduct Score (11b-HSD1 [1]) | [C2] HSD1 cellular 3T3-L1 Score (11b-HSD1 [2])
CC[C@@H](c1ccccc1)N1CC[C@@H](Cc2c(Cl)cccc2Cl)C1=O [Compound 95] | < 1 | 1 to 10 | – | –
CC[C@H](c1ccccc1)N1CC[C@H](Cc2c(Cl)cccc2Cl)C1=O [Compound 96] | 1 to 10 | > 10 | – | –
COC[C@H](c1ccccc1)N1CC[C@H](Cc2c(Cl)cccc2Cl)C1=O [Compound 98] | > 10 | 1 to 10 | – | –
COC[C@H](c1ccccc1)N1CC[C@@H](Cc2c(Cl)cccc2Cl)C1=O [Compound 99] | < 1 | < 1 | – | –
COC[C@@H](c1ccccc1)N1CC[C@H](Cc2c(Cl)cccc2Cl)C1=O [Compound 100] | 1 to 10 | > 10 | – | –
COC[C@@H](c1ccccc1)N1CC[C@@H](Cc2c(Cl)cccc2Cl)C1=O [Compound 101] | > 10 | > 10 | – | –
O=C1C(Cc2c(Cl)cccc2Cl)CCN1[C@@H](Cc1ccccc1)c1ccccc1 (some centres unmarked) [Compound 102] | > 10 | > 10 | – | –
O=C1[C@@H](Cc2c(Cl)cccc2Cl)CCN1[C@H](CO)c1ccccc1 [Compound 104] | > 10 | 1 to 10 | – | –
O=C1[C@H](Cc2c(Cl)cccc2Cl)CCN1[C@H](CO)c1ccccc1 [Compound 105] | < 1 | < 1 | – | –
O=C1[C@@H](Cc2c(Cl)cccc2Cl)CCN1[C@@H](CO)c1ccccc1 [Compound 106] | 1 to 10 | > 10 | – | –
O=C1[C@H](Cc2c(Cl)cccc2Cl)CCN1[C@@H](CO)c1ccccc1 [Compound 107] | 1 to 10 | > 10 | – | –
O=C1C(Cc2ccc(F)cc2F)CCN1CCc1ccccc1 (centres unmarked) [Compound 108] | 1 to 10 | 1 to 10 | – | –
COc1cc(CC2CCN(CCc3ccccc3)C2=O)ccc1OCc1ccccc1 (centres unmarked) [Compound 109] | > 10 | 1 to 10 | – | –
Cc1ccccc1CC1CCN(CCCc2ccccc2)C1=O (centres unmarked) [Compound 110] | 1 to 10 | 1 to 10 | – | –
O=C1C(Cc2ccccc2Cl)CCN1CCCc1ccccc1 (centres unmarked) [Compound 111] | 1 to 10 | 1 to 10 | – | –
O=C1C(Cc2ccc(F)cc2Cl)CCN1CCCc1ccccc1 (centres unmarked) [Compound 112] | 1 to 10 | 1 to 10 | – | –
Cc1cccc(C)c1CC1CCN(CCCc2ccccc2)C1=O (centres unmarked) [Compound 113] | 1 to 10 | 1 to 10 | – | –
O=C1C(Cc2c(Cl)cccc2Cl)CCN1CCCc1ccccc1 (centres unmarked) [Compound 114] | > 10 | < 1 | – | –
CC(C)(c1ccccc1)N1CCC(Cc2c(Cl)cccc2Cl)C1=O (centres unmarked) [Compound 115] | > 10 | < 1 | – | –
C[C@@H](c1ccccc1)N1CCC(CCc2cccc3ccccc23)(CCc2cccc3ccccc23)C1=O [Compound 116] | > 10 | > 10 | – | –
C[C@@H](c1ccccc1)N1CC[C@H]([C@@](C)(O)c2ccc(CCBr)cc2)C1=O [Compound 117] | < 1 | < 1 | – | –
C[C@@H](c1ccccc1)N1CC[C@@H]([C@](C)(O)c2ccc(CCBr)cc2)C1=O [Compound 118] | > 10 | 1 to 10 | – | –
COc1ccc(C[C@H]2CCN([C@@H](C)c3ccccc3)C2=O)c(Cl)c1OC [Compound 120] | 1 to 10 | < 1 | – | –
COc1cc(C[C@@H]2CCN([C@@H](C)c3ccccc3)C2=O)ccc1OCc1ccccc1 [Compound 121] | > 10 | > 10 | – | –

Source: US9776965B2, “Pyrrolidin-2-one and piperidin-2-one derivatives as 11-beta hydroxysteroid dehydrogenase inhibitors” (Janssen Pharmaceutica N.V., priority 2004, dated 2017)
